Structures can show the parent of a compound that is named as a salt.
Tests used:
Format in all cases: cell-based, human
[1] = system: UM-UC-14 cells; assay: MTT vitality assay, 72 h; conditions: TFA up to 25 μM
Description: The sensitizing effect in this cell model was more pronounced for Co(acac)2LPonvs.Co(Meacac)2LPon reflecting the differences in the reduction potentials. Purification of the novel compounds was performed in the presence of 0.1% TFA, leading to the respective TFA salts.
As mentioned above, two stereoisomers of Co(acac)2LPon could be isolated. To clarify, whether there are differences in their anticancer activity, they were analyzed (in addition to the isomeric mixture) in UM-UC-14 cells by MTT assay. […] Accordingly, values for the isomeric mixture positioned intermediate. As expected, both stereoisomers and the isomeric mixture were distinctly activated by hypoxic conditions. The moderately higher activity of isomer 1 remained also under hypoxic conditions (Fig. S12A ^†). […]
Cells were seeded (3–7 × 10^4 cells per well) in 96-well plates and after 24 h recovery treated with increasing concentrations of compounds in triplicates. After 72 h drug exposure under normoxic or hypoxic cell culture conditions (0.1% O2) (ProOx Model C21 system, BioSpherix), the proportion of viable cells was determined by 3-(4,5-dimethylthiazol-2-yl)-2,5-diphenyltetrazolium bromide (MTT)-vitality assay (EZ4U, Biomedica, Vienna, Austria) or by luminescence assay based on adenosine triphosphate quantification (CellTiter-Glo, Promega, Madison, Wisconsin) following the manufacturer's recommendations. […]

[2] = system: p-ERK1/2 and p-S6 in K-562 cells; assay: western blot of downstream signalling, 12 h; conditions: K-562, 12 h, western blot
Description: Fig. 10 Impact of the cobalt(III) complexes on the ERK1/2 and S6 under normoxic and hypoxic conditions. K-562 cells were treated with the compounds, after 12 h cell lysates were prepared and protein expression as well as phosphorylation levels of downstream pathways (p-ERK1/2 and p-S6) analyzed by western blotting. One representative experiment out of three is shown. The ratio of phosphorylated to total protein is given between the respective lanes.
K-562 cells were plated (5 × 10^5 cells per well) in 6-well plates and allowed to recover for 24 h. Subsequently, the cells were treated with the drugs in different concentrations. After 12 h cells were harvested, proteins were isolated, resolved by sodium dodecyl sulfate polyacrylamide gel electrophoresis (SDS/PAGE), and transferred onto a polyvinylidene difluoride membrane for western blotting. The following antibodies were used: ERK1/2 (p44/42) rabbit monoclonal antibody (mAb) (137F5, #4695), phospho-ERK1/2 rabbit mAb (Thr202/Tyr204) (20G11, #4376), phospho-S6 rabbit pAb (Ser240/244, #2215) (Cell Signaling Technology, Beverly, MA, USA), S6 mouse mAb (C-8. #sc-74459) (Santa Cruz Biotechnology, TX, USA) and β-actin mouse mAb (#A5441, Sigma). All primary antibodies were used in 1 : 1000 dilutions (in Tris-buffered saline containing 0.1% Tween20 (TBST) + 3% bovine serum albumin (BSA)). Secondary goat anti-mouse-IgG (Fc specific)-peroxidase antibody (#A0168, Sigma) and horseradish peroxidase(HRP)-labeled mouse anti-rabbit IgG (#sc-2357, Santa Cruz Biotechnology) were used at working dilutions of 1 : 10 000 (in TBST + 1% BSA).

[3] = system: FGFR3-driven UM-UC-14 urothelial cancer cell model; assay: colony formation assay, 5 d; conditions: normoxic
Description: In order to investigate the impact of long-term oxygen restriction, clonogenic assays were performed in the FGFR3-dependent UM-UC-14 cell model (Fig. 9C).
UM-UC-14 cells were seeded at low densities of 3 × 10^3 cells per well in 24-well plates in 500 μL and after 24 h recovery treated with 100 μL of increasing concentrations of compounds in duplicates. Following drug exposure time of 5 days under normoxic or hypoxic (0.1% O2) culture conditions, cells were washed with phosphate-buffered saline (PBS), fixed with ice-cold methanol for 30 min at 4 °C and stained with crystal violet. Digital photographs were taken using a Nikon D3200 camera and processed with ImageJ software. For quantification, crystal violet was eluted using 2% sodium dodecyl sulfate (SDS) and color absorbance was measured at 560 nm at the Tecan infinite 200Pro (Zurich, Switzerland). Values are given in arbitrary units (a.u.) as mean ± SD normalized to untreated control.

Compound	impact on cell viability [1]	activity on ERK1/2 and S6 phosphorylation, normoxic vs hypoxic [2]	inhibition of clonogenic cell growth [3] [%]
O=C(O)C(F)(F)F [TFA, trifluoroacetic acid]	no impact on cell viability		
Cc1ccc(C(=O)Nc2ccc(CN3CCN(C)CC3)c(C(F)(F)F)c2)cc1C#Cc1cnc2cccnn12 [ponatinib, reference compound]		equally active under the two oxygen conditions	95

— paper PMC8129988 (Inorganic Chemistry Frontiers, 2021)
